Data reported in ChEMBL document CHEMBL2169808, “Discovery of pyrazole carboxylic acids as potent inhibitors of rat long chain L-2-hydroxy acid oxidase” (Bioorg Med Chem Lett, 2012).

What was measured:
[1] = organism: Rattus norvegicus; test: Selectivity ratio of IC50 for rat Hao1 to IC50 for rat Hao2
[2] = target: T1, 2-Hydroxyacid oxidase 2 (Rattus norvegicus) (UniProt Q07523); test: Inhibition of rat Hao2-mediated oxidation of 2-hydroxyoctanoic acid assessed as proportionate release of H2O2 at 10 uM
T1 sequence (whole entry): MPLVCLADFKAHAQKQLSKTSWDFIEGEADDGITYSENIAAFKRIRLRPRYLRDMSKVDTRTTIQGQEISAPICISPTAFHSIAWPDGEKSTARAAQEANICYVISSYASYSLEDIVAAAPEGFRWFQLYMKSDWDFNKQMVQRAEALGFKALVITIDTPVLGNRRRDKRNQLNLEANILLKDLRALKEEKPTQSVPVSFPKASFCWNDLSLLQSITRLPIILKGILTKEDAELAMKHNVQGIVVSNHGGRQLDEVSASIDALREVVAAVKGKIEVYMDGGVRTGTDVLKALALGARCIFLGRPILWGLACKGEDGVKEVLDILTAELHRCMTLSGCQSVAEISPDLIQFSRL

[3] = target: T2, 2-Hydroxyacid oxidase 2 (Homo sapiens) (UniProt Q9NYQ3); test: Inhibition of human Hao2-mediated oxidation of 2-hydroxyoctanoic acid assessed as proportionate release of H2O2 at 1 uM
T2 sequence (whole entry): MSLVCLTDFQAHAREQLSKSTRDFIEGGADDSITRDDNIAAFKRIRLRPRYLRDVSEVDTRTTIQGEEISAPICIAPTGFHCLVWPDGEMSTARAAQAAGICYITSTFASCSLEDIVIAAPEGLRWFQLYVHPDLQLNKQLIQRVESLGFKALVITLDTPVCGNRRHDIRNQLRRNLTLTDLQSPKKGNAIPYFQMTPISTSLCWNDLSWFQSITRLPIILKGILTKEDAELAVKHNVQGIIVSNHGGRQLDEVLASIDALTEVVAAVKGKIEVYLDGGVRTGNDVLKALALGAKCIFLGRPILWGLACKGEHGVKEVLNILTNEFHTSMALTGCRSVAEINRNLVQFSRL

[4] = target: T2, 2-Hydroxyacid oxidase 2 (Homo sapiens); test: Inhibition of human Hao2-mediated oxidation of 2-hydroxyoctanoic acid assessed as proportionate release of H2O2 at 10 uM
[5] = target: T1, 2-Hydroxyacid oxidase 2 (Rattus norvegicus); test: Inhibition of rat Hao2-mediated oxidation of 2-hydroxyoctanoic acid assessed as proportionate release of H2O2 at 1 uM
[6] = target: T3, 2-Hydroxyacid oxidase 2 (Homo sapiens, UniProt Q9NYQ3); test: Inhibition of human Hao2-mediated oxidation of 2-hydroxyoctanoic acid assessed as proportionate release of H2O2
T3 sequence (Q9NYQ3 whole entry): T2 sequence (whole entry)

Structure (SMILES) | Ratio IC50 [1] | inhibition [2] | inhibition [3] | inhibition [4] | inhibition [5] | IC50 [6]
Cc1n[nH]c(C(=O)O)c1Cc1ccccc1Oc1ccccc1 | > 150 | 69% | 9% | 49% | 10% | 
Cc1n[nH]c(C(=O)O)c1Cc1cc2ccccc2o1 | > 150 | 87% | 26% | 66% | 47% | 
Cc1n[nH]c(C(=O)O)c1Cc1ccc(C(=O)O)cc1 | > 150 | 69% | 3% | 22% | 40% | 
Cc1n[nH]c(C(=O)O)c1Cc1ccc(C#N)cc1 | > 150 | 85% | 0% | 6% | 33% | 
Cc1n[nH]c(C(=O)O)c1Cc1cccc(C(=O)O)c1 | > 150 | 60% | 3% | 0% | 7% | 
Cc1n[nH]c(C(=O)O)c1Cc1ccc(C(F)(F)F)cc1 | > 150 | 71% | 9% | 12% | 35% | 

Now from value to compound:

Ratio IC50 [1] | inhibition [2] | inhibition [3] | inhibition [4] | inhibition [5] | IC50 [6] | Structure (SMILES)
> 150 | 73% | 11% | 56% | 21% |  | Cc1n[nH]c(C(=O)O)c1Cc1ccccc1-c1ccc(F)cc1
 | 79% |  |  | 35% | 0.95 µM | Cc1n[nH]c(C(=O)O)c1-c1cccc(-c2ccc(F)cc2)c1
> 150 | 65% | 19% | 55% | 13% |  | Cc1n[nH]c(C(=O)O)c1-c1ccc(-c2ccc(F)cc2)cc1
> 150 | 81% | 5% | 16% | 31% |  | Cc1n[nH]c(C(=O)O)c1CCc1ccc(F)cc1
